“Also recorded” adds a separate entry of the source.
Experiments:
[1] = Toxicity / tolerability of QC-56 in SCID mice (pilot study); format: in vivo
Text: IV.I (iii) Bioassay Species and strain: Mouse (Mus musculus); SCID, male Age at dosing initiation: 8 weeks old.
Once tumors became palpable, mice were randomized into experimental groups and the treatment was initiated.

[2] = tested on: HCT-116 colorectal carcinoma; test: Colorectal carcinoma model HCT-116 in SCID mice, tumor growth delay; format: in vivo, Mouse (Mus musculus); male SCID; conditions: dosage of 60 mg/kg
Text: Control groups received the vehicle alone.

[3] = tested on: CD31-positive vessels in SKMEL-V+ tumors; test: CD31 immunohistochemistry / microvessel density of SKMEL-V+ tumors; format: in vivo, Mouse (Mus musculus), male SCID; conditions: QC-56 particularly at 60 mg/kg, hydrochloride, 60 mg/kg
Procedure: Cell cultures were maintained in 5% CO2/95% air at 37° C. SKMEL-V (human melanoma cells). SKMEL-V cells were derived from SKMEL-24 cells (ATCC) by overexpression of mouse VEGF. […] Tumors were either snap frozen in liquid nitrogen or fixed in 10% buffered formalin and embedded in paraffin. […] BD PharMingen, San Diego, Calif.). […] Sections were rehydrated in PBS and then blocked with 5% normal goat serum for 1 h. The sections were then incubated overnight at 4° C. with CD31 antibody diluted 1:25 in 3% BSA-PBS. […] Paraffin-embedded material was used for Harris' hematoxylin. Microvessel density was quantified using a method described by Weidner et al ([…], and Folkman […]. Med, 1991; 324:1-8). Briefly, randomly vascularized areas were selected (hot spots) under 40× field and 100× fields. Then a 400× field was used to count microvessels in each of these areas. Single endothelial cells or clusters of endothelial cells with or without lumen were considered to be individual vessels. […] All slides were examined blindly with no prior knowledge of the treatment status.

[4] = tested on: human metastatic prostate cancer PC-3M cells; test: Orthotopic PC-3M prostate cancer model in SCID mice, primary tumor and metastases; format: in vivo, male SCID; conditions: 32-mouse study
Text: PC-3 & PC-3M (human prostate carcinoma). The PC-3 human prostate cancer cell line was originally obtained from the American Type Culture Collection (Rockville, Md.). The PC-3M cell line was kindly provided by Dr. Issac (MD Anderson Cancer Center). This cell variant was derived from a liver metastasis produced by the parental PC-3 cells growing in the spleen of a nude mouse [Pettaway C A, Pathak S, Greene G. et al. Selection of highly metastatic variants of different human prostate carcinomas utilizing orthotopic implantation in nude mice. Clin Cancer Res 1996; 2:1627-36].
Cell cultures were maintained in 5% CO2/95% air at 37° C. SKMEL-V (human melanoma cells). SKMEL-V cells were derived from SKMEL-24 cells (ATCC) by overexpression of mouse VEGF.
Exponentially growing cells were harvested using a brief exposure to 0.25% trypsins:0.1% EDTA solution (w/v).
Mice were anesthesized with isofluorane given by inhalation and placed in a supine position. Betadine and 75% Ethanol was used to clean the skin of abdomen. A low midline incision was made and the prostate was exposed. Fifty microliters of HBSS containing 1×10^6 cells was injected into a lateral lobe of the prostate. […]
Primary tumors in the prostate were excised, measured, and weighed. […]
The in vivo data was analyzed using the Mann-Whitney U test.

Brc1ccc(CCC2(Cn3ccnc3)OCCO2)cc1.Cl [QC-56, 1-((2-(2-(4-Bromophenyl)ethyl)-1,3-dioxolan-2-yl)methyl)-1H-imidazole hydrochloride]
tolerability after multiple administrations ([1]; 50 mg/kg): well tolerated | tolerability at repeated doses ([1]; 30 and 60 mg/kg, intraperitoneal, hydrochloride): well tolerated at repeated doses of 30 and 60 mg/kg with minor changes in body weights with no apparent toxicity; also recorded: well tolerated | toxic single dose ([1]; intraperitoneally, single dose): ≥ 100 mg/kg | mortality [2]: not | vessel count / tumor vascularization (CD31) [3]: significant decrease in the size and number of blood vessels | formation of macroscopic lymph node metastases [4]: complete inhibition
